Laboratory results reported in ChEMBL document CHEMBL1141010, “Chroman-3-amides as potent Rho kinase inhibitors” (Bioorg Med Chem Lett, 2008).

How the values were obtained:
Assay type in all cases: ADME, organism-based
[1] = Volume of distribution at steady state in rat at 1 mg/kg, iv and 2 mg/kg, po; conditions: in vivo, read-out: Vdss
[2] = Cmax in rat at 2 mg/kg, po; design: dose 2 mg/kg, route oral; conditions: in vivo
[3] = Oral bioavailability in rat at 2 mg/kg; conditions: in vivo

Row | Vd [1] | Cmax [2] | bioavailability [3] | SMILES
1 | 4.6 L/kg | 170 nM | 33% | CN(C)CCOc1cc(-c2cn[nH]c2)ccc1NC(=O)C1COc2ccccc2C1 (centres undefined)
2 | 5.9 L/kg | 100 nM | 27% | CN(C)CCOc1cc(-c2cn[nH]c2)ccc1NC(=O)C1COc2ccc(F)cc2C1 (centres undefined)
3 | 1.7 L/kg | 320 nM | 35% | COc1ccc2c(c1)CC(C(=O)Nc1ccc(-c3cn[nH]c3)cc1OCCN(C)C)CO2 (centres undefined)
